From paper PMC7193532 (Acta Crystallographica. Section D, Structural Biology, 2020)
Converted amounts (≈) assume the structure as drawn. *1 amine or outer side, *2 acyl side, *3 side chain or, on linkers, in order; H or OH if unused. Where a SMILES comes first, the peptide text is derived from it. Bridges are numbered along the chain shown (N, C = ends). [ ]: non-standard residue; d: D form. The star is where a group is joined. ξ: configuration not given here. Phe(3R-OH) = O=C([C@@H](N[*:1])[C@H](O[*:3])c1ccccc1)[*:2]; NMeTrp(4-OMe) = CN[CH](Cc1c[nH]c2cccc(OC)c12)C(=O)O; X1 = O=C(C(N[*:1])C(O)c1ccccc1)[*:2]; NMeT = CN[CH](C(=O)O)[CH](C)O; NMeI = CC[CH](C)[CH](NC)C(=O)O; ξNMe2Val = CC(C)C(C(=O)*)N(C)C; NMeL = CN[CH](CC(C)C)C(=O)O; NMeV = CN[CH](C(=O)O)C(C)C

How the values were obtained:
[1] = co-crystallization attempts
[2] = system: ClpC1–ClpP1–ClpP2 complex; conditions: 2019, cited from earlier work; for effect on proteolytic activity: ECU, lassomycin: ref Choules et al., Gavrish et al., 2014; for effect on proteolysis: CYMA, RUF-I: ref Schmitt et al., 2011, Choules et al.
ClpC1-FL = ClpC1-FL (Mycobacterium tuberculosis, UniProt P9WPC9); assay type: binding; conditions: for Stoichiometry (Sm): calculated from SPR responses, compound molecules per ClpC1; for improvement of χ^2, multi-site versus one-site fit: multi-site fit better; for difference between Kd1 and Kd2: multi-site model
ClpC1 [3] = conditions: cited from earlier work
ClpC1 [4] = conditions: cited from earlier work; remark: listed apart in the source
[5] = target: N-terminal domain of ClpC1 (ClpC1-NTD), residues 1-145 plus a C-terminal His tag (Mycobacterium tuberculosis) (UniProt P9WPC9); experiment: crystal structure
[6] = target: full-length ClpC1 (ClpC1-FL) (Mycobacterium tuberculosis) (UniProt P9WPC9); experiment: SPR

Compound: CCC(C)C(C(=O)NC1C(=O)N(C)C(C(C)O)C(=O)NC(C(C)C)C(=O)N(C)C(CC(C)C)C(=O)NC(C(C)C)C(=O)N(C)C(C(C)C)C(=O)N(C)C(Cc2c[nH]c3cccc(OC)c23)C(=O)NC(C(C)C)C(=O)NC(C(O)c2ccccc2)C(=O)NC(C(C)C)C(=O)OC1C)N(C)C(=O)C(NC(=O)C(C(C)C)N(C)C)C(C)C (stereo not drawn) [ECU, ecumicin] (ξNMe2Val-V[NMeI]T[NMeT]V[NMeL]V[NMeV][NMeTrp(4-OMe)]V[X1]V; ester 3-C; configuration not given here)
- MIC90 (Mtb): 110 ± 13 nM (≈ 0.176 µg/mL)
- solubility (in words) [1]: poor solubility
- effect on proteolytic activity [2]: decrease the proteolytic activity
- χ^2 of one-site fit (ClpC1-FL; 1:1 Langmuir model, smaller = better fit): 16.1
- Stoichiometry (Sm) (ClpC1-FL): 2.2
- χ^2 of multi-site fit (ClpC1-FL; heterogeneous ligand model, smaller = better fit): 3.2
- improvement of χ^2, multi-site versus one-site fit (ClpC1-FL): fivefold
- difference between Kd1 and Kd2 (ClpC1-FL): about 18 fold
- effect on ATPase activity (ClpC1 [3]): activate the ATPase activity
- enhancement of ATPase activity of ClpC1 (ClpC1 [3]): at least twofold

Compound: CN[C@H](C(=O)N[C@H](C(=O)N[C@@H]1C(=O)N(C)[C@@H]([C@@H](C)O)C(=O)N[C@@H](C(C)C)C(=O)N(C)[C@@H](CC(C)C)C(=O)N[C@@H](C(C)C)C(=O)N(C)[C@@H](C(C)C)C(=O)N(C)[C@@H](Cc2c[nH]c3cccc(OC)c23)C(=O)N[C@@H](C(C)C)C(=O)N[C@@H]([C@H](O)c2ccccc2)C(=O)N[C@@H](C(C)C)C(=O)O[C@@H]1C)C(C)C)C(C)C [OMS-A, ohmyungsamycin A] (H-[NMeV]VT[NMeT]V[NMeL]V[NMeV][NMeTrp(4-OMe)]V[Phe(3R-OH)]V; ester 3-C)
- Stoichiometry (Sm) (ClpC1-FL): 2.2
- improvement of χ^2, multi-site versus one-site fit (ClpC1-FL): threefold
- difference between Kd1 and Kd2 (ClpC1-FL): fivefold

Compound: C/C=C/C[C@@H]1NC(=O)[C@H](CC(C)C)N(C)C(=O)[C@H](CC(C)C)NC(=O)[C@H](Cc2ccc(O)c([N+](=O)[O-])c2)NC(=O)[C@H](C)N2C(=O)[C@H](CC(C)C2O)N(C)C(=O)[C@H](Cc2cn(C(C)(C)C3CO3)c3ccccc23)NC1=O (stereo partly drawn) [RUF-I, rufomycin I]
- binding in the presence of ECU (ClpC1 [4]): cannot bind in the presence of ECU
- effect on proteolysis [2]: inhibition
- effect on ATPase activity (ClpC1 [3]): no significant effect
- enhancement of ATPase activity of ClpC1 (ClpC1 [3]): no significant effect

Compound: cyclomarin A [CYMA, reference compound]
- effect on proteolysis [2]: activation
- effect on ATPase activity (ClpC1 [3]): no effect on the ATPase activity

Compound: ecumicin (ECU) (peptide)
- stoichiometry N (ECU per ClpC1-NTD) [5]: 2
- stoichiometry N [6]: 2.2

Compound: lassomycin [reference compound]
- effect on proteolytic activity [2]: decrease the proteolytic activity
- effect on ATPase activity (ClpC1 [3]): activate the ATPase activity

Compound: ohmyungsamycin A (OMS-A) (peptide)
- stoichiometry N [6]: 2.2

Compound: ohmyungsamycin B (OMS-B) (peptide)
- Kd1 (site 1, multi-site fit) [6]: 962 nM
- Kd2 (site 2, multi-site fit) [6]: 1740 nM

Compound: ohmyungsamycin B [OMS-B]
- reduction in binding relative to ECU (ClpC1-FL; structural analogs of ECU): tenfold
